Measured values: PMC8566451, “Lead optimization of novel quinolone chalcone compounds by a structure–activity relationship (SAR) study to increase efficacy and metabolic stability” (Scientific Reports, 2021)

Columns and labels:
[1] = Toxicity in mice (body weight, AST/ALT); assay type: in vivo, mouse; settings: for liver toxicity (AST and ALT): C57BL/6 mice, up to maximum doses 10 mg (CTR-21) and 50 mg (CTR-32); for toxicity in mice: mice treated at 10 mg/kg
Protocol: All animal experiments, including animal handling, care, treatments and endpoint determination were reviewed and approved by the Animal Care Committee (ACC) at Laurentian University (Sudbury, Ontario, Canada). We hereby confirm that all animal-based experiments were performed in compliance with relevant guidelines and regulations, including the ARRIVE guidelines (http://www.nc3rs.org.uk/page.asp?id=1357). Weight measurement and AST/ALT experiments were carried out as before.
Neither CTR-21 nor CTR-32 treatment notabl y affect ed the bod y weight of mice treated with CTR-21 or CTR-32. Mice ( C57B L/6) were inject ed (i.p.) ev er y three da ys with the indicated doses of CTR -21 or CTR-32, along with vehicle control. […]
doses used in this experiment (i.e., 10 mg and 50 mg for CTR-21 and CTR-32, respectivel y).
There is no si gnificant changes of AST and ALT between different groups , including vehicl e

[2] = test system: UKRV-Mel-17; assay: Sulforhodamine B (SRB) assay; assay type: cell-based; settings: UKRV-Mel-17 melanoma cells, 48 h
Protocol: (§1) The human MDA-MB-231, MCF7, MDA-MB-468, RPMI-8226 and HeLa cell lines were purchased from ATCC and maintained in Dulbecco's Modified Eagle Medium (DMEM)—high glucose supplemented with 10% fetal bovine serum (FBS) and antibiotics/antimycotics. Cell line authentication was carried out by Genetica DNA Laboratories (Burlington, NC) using a short tandem repeat (STR) profiling method (March 2015; July 2015; September 2016). Melanoma cells E-055 (MZ-Mel-3), E-097 (Mel-SOE), E-112 (UKRV-Mel-38), E-157 (UKRV-Mel-17) were obtained from the European Searchable Tumour Line Database (ESTDAB) cell bank (a kind gift of Dr. Graham Pawelec, Tubingen University, Germany). MDA-MB-435 was purchased from the Division of Cancer Treatment and Diagnosis Tumor Repository. All melanoma cells were cultured in Roswell Park Memorial Institute (RPMI) medium supplemented with 10% FBS and P/S/antimycotics. Primary human epidermal melanocytes from normal adult abdominal skin were purchased from ATCC (cat # PCS-200–013) and Cell Applications (cat#104-05a). The melanocytes were cultured in the media supplied by the companies.
(§2) The SRB assay was used to assess drug-induced cytotoxicity and cell proliferation as previously described[2],[33],[34] with a few modifications. Briefly, cells were plated 10,000 to 25,000 cells/cm^2 in 96-well plates (100 µl medium) and allowed to adhere overnight. The cell counts were different for each cell line to ensure optimal cell growth for the duration of the assay. Eight different concentrations of compound solutions using 2–4 times serial dilutions (100 µl). Cells were then incubated for an additional 48 h and then fixed with 100 µl ice-cold 10% (w/v) trichloroacetic acid (TCA) (without removing the cell medium, final concentration, 3.3% of TCA) and stained with 0.4% SRB (w/v) in 1% acetic acid (v/v). The relative growth rate (%) was calculated for each of the compound concentrations according to the following formula: 100 * (T − T0)/(C − T0), in which T is the optical density (OD) after exposure to a certain concentration of the compound after 48 h, T0 is the OD at the start of drug exposure (time zero) and C is the control growth. The GI50 for each compound was obtained from a non-linear sigmoidal dose–response (variable slope) curve fitted by GraphPad Prism v.4.03 software.

[3] = test system: MDA-MB468; assay: Sulforhodamine B (SRB) assay; assay type: cell-based; settings: Homo sapiens, MDA-MB-468, MDA-MB468 breast cancer cells, 48 h
Protocol: as §1, §2

[4] = test system: Mel-SOE; assay: Sulforhodamine B (SRB) assay; assay type: cell-based; settings: Mel-SOE melanoma cells, 48 h
Protocol: as §1, §2

[5] = test system: UKRV-Mel-38; assay: Sulforhodamine B (SRB) assay; assay type: cell-based; settings: UKRV-Mel-38 melanoma cells, 48 h
Protocol: as §1, §2

[6] = test system: MDA-MB231; assay: Sulforhodamine B (SRB) assay; assay type: cell-based; settings: Homo sapiens, MDA-MB-231; for GI50: MDA-MB231 breast cancer cells, 48 h, SRB; for IC50: Supplementary Table S1, SRB
Protocol: as §1, §2

[7] = test system: MZ-Mel-3; assay: Sulforhodamine B (SRB) assay; assay type: cell-based; settings: MZ-Mel-3 melanoma cells, 48 h
Protocol: as §1, §2

[8] = test system: MDA-MB435; assay: Sulforhodamine B (SRB) assay; assay type: cell-based; settings: Homo sapiens, MDA-MB-435, MDA-MB435 cells, 48 h
Protocol: as §1, §2

[9] = test system: HeLa; assay: Sulforhodamine B (SRB) assay; assay type: cell-based; settings: Homo sapiens; for IC50: HeLa, Supplementary Table S1, SRB; for GI50: HeLa cervical cancer cells, 48 h, SRB
Protocol: as §1, §2

[10] = test system: RPMI-8226; assay: Sulforhodamine B (SRB) assay; assay type: cell-based; settings: Homo sapiens, Supplementary Table S1, SRB
Protocol: as §1, §2

[11] = test system: MCF7; assay: Sulforhodamine B (SRB) assay; assay type: cell-based; settings: Homo sapiens; for IC50: MCF7, Supplementary Table S1, SRB; for GI50: MCF7 breast cancer cells, 48 h, SRB
Protocol: as §1, §2

Row | SMILES | liver toxicity (AST and ALT) [1] | toxicity in mice [1] | GI50 [2] [nM] | GI50 [3] [nM] | GI50 [4] [nM] | GI50 [5] [nM] | GI50 [6] [nM] | IC50 [6] [nM] | GI50 [7] [nM] | GI50 [8] [nM] | IC50 [9] [nM] | GI50 [9] [nM] | IC50 [10] [nM] | IC50 [11] [nM] | GI50 [11] [nM] | also measured
1 | COc1ccccc1C(=O)/C=C/c1cc2cccc(OC)c2[nH]c1=O [CTR-21, (E)-8-methoxy-3-(3-(2-methoxyphenyl)-3-oxoprop-1-enyl) quinolin-2(1H)-one] | do not show notable liver | no ill-effects observed | 9 ± 2 | 29 ± 10 | 27 ± 5 | 13 ± 3 | 17 ± 3 | 56.9 ± 10.5 | 6 ± 1 | 7 ± 2 | 11.9 ± 1.4 | 8 ± 3 | 5.34 ± 0.89 | 75.1 ± 3.07 | 16 ± 5 | ALT ([1]; female C57BL/6 mice, 1 mg/kg): 118.03±25.82 U/L; AST ([1]; female C57BL/6 mice, 1 mg/kg): 249.47±77.12 U/L; AST/ALT ([1]; female C57BL/6 mice, 1 mg/kg): 2.12; ALT ([1]; female C57BL/6 mice, 5 mg/kg): 142.17±45.44 U/L; AST ([1]; female C57BL/6 mice, 5 mg/kg): 265.03±97.76 U/L; AST/ALT ([1]; female C57BL/6 mice, 5 mg/kg): 1.86; ALT ([1]; female C57BL/6 mice, 10 mg/kg): 142.98±45.61 U/L; AST ([1]; female C57BL/6 mice, 10 mg/kg): 319.215±101.93 U/L; AST/ALT ([1]; female C57BL/6 mice, 10 mg/kg): 2.23; ALT ([1]; male C57BL/6 mice, 1 mg/kg): 128.49±60.78 U/L; AST ([1]; male C57BL/6 mice, 1 mg/kg): 264.42±91.94 U/L; AST/ALT ([1]; male C57BL/6 mice, 1 mg/kg): 2.06; ALT ([1]; male C57BL/6 mice, 5 mg/kg): 142.71±58.30 U/L; AST ([1]; male C57BL/6 mice, 5 mg/kg): 228.82±42.23 U/L; AST/ALT ([1]; male C57BL/6 mice, 5 mg/kg): 1.60; ALT ([1]; male C57BL/6 mice, 10 mg/kg): 123.93±49.96 U/L; AST ([1]; male C57BL/6 mice, 10 mg/kg): 242.62±102.65 U/L; AST/ALT ([1]; male C57BL/6 mice, 10 mg/kg): 1.96
2 | CCOc1ccccc1C(=O)/C=C/c1cc2ccccc2[nH]c1=O [CTR-32, (E)-3-(3-(2-ethoxyphenyl)-3-oxoprop-1-enyl)quinolin-2(1H)-one] | do not show notable liver | no ill-effects observed | 18 ± 3 | 26 | 33 ± 9 | 22 ± 3 | 20 ± 2 | 44.2 ± 4.21 | 6 ± 2 | 13 ± 5 | 12.9 ± 0.35 | 11 ± 2 | 6.29 ± 1.43 | 46.4 ± 3.61 | 27 ± 6 | ALT ([1]; female C57BL/6 mice, 30 mg/kg): 103.54±61.53 U/L; AST ([1]; female C57BL/6 mice, 30 mg/kg): 253.74±117.87 U/L; AST/ALT ([1]; female C57BL/6 mice, 30 mg/kg): 2.45; ALT ([1]; female C57BL/6 mice, 50 mg/kg): 87.81±25.42 U/L; AST ([1]; female C57BL/6 mice, 50 mg/kg): 268.16±136.88 U/L; AST/ALT ([1]; female C57BL/6 mice, 50 mg/kg): 3.05; ALT ([1]; male C57BL/6 mice, 30 mg/kg): 110.30±44.56 U/L; AST ([1]; male C57BL/6 mice, 30 mg/kg): 288.49±184.97 U/L; AST/ALT ([1]; male C57BL/6 mice, 30 mg/kg): 2.62; ALT ([1]; male C57BL/6 mice, 50 mg/kg): 96.57±45.23 U/L; AST ([1]; male C57BL/6 mice, 50 mg/kg): 217.49±39.91 U/L; AST/ALT ([1]; male C57BL/6 mice, 50 mg/kg): 2.25
